Values after ≈ are worked out from the molar mass of the structure shown. Active and inactive are the calls of the source. The rule behind the calls is not given here.
Experiments:
[1] = tested on: Staphylococcus aureus; assay: Bacteriostatic activity against methicillin-resistant Staphylococcus aureus ATCC 33591 by LB plate method; assay type: functional
[2] = tested on: Staphylococcus aureus; assay: Antibacterial activity against methicillin-resistant Staphylococcus aureus ATCC 33591 after 18 hrs by dilution method; assay type: functional; details: ATCC 33591, 18 h

In the case of `CC(=O)O[C@H]1C(=O)O[C@H](C[C@@]2(C)[C@@H]3CCCC(C)(C)C3=CC[C@@H]2C)[C@]1(O)CCl`, the Activity [1] is reported as “Active” and the MIC [2] is reported as 40 µg/mL (≈ 96.9 µM).

In the case of `CC(=O)O[C@H](C[C@@]1(C)[C@@H]2CCCC(C)(C)C2=CC[C@@H]1C)[C@@]1(O)COC(=O)[C@@H]1O`, the MIC [2] is reported as > 200 µg/mL.

Reference: ChEMBL document CHEMBL4002559, “Micromonohalimanes A and B: Antibacterial Halimane-Type Diterpenoids from a Marine Micromonospora Species” (2016)
